Ki data for 17 molecules are collected here from ChEMBL document CHEMBL1938349 (Bioorg Med Chem, 2012).

SMILES strings stand for the structures. Some results are limits rather than exact numbers.

The target in assay [1] is T1, 5-hydroxytryptamine receptor 1A (Homo sapiens, UniProt P08908).
T1 sequence (P08908 whole entry): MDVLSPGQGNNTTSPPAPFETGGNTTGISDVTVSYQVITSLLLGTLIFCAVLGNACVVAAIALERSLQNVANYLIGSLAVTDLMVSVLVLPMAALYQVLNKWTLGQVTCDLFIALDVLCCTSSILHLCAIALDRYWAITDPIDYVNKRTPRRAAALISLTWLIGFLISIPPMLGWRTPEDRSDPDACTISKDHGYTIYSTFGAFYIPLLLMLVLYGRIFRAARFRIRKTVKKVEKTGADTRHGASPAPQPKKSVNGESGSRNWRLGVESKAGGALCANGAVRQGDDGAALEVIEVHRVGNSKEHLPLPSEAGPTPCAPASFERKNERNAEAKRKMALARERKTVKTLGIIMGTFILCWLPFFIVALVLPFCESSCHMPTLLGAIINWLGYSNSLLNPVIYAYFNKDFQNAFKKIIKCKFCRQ
The assay is described as follows: Displacement of [3H]8-OH-DPAT from human 5HT1A receptor by liquid scintillation counting. In general terms: Loss of bound radioactivity is the signal in a displacement assay; it reports binding, not function.

A further assay has as its target D(2) dopamine receptor (Homo sapiens, UniProt P14416). Briefly: Displacement of [3H]N-methylspiperone from human dopamine D2 receptor by liquid scintillation counting.
For assay [2], the target named is 5-hydroxytryptamine receptor 2A (Homo sapiens, UniProt P28223). The assay is described as follows: Displacement of [3H]DOI from human 5HT2A receptor after 1 hr by liquid scintillation counting.
In assay [3] the target is T2, 5-hydroxytryptamine receptor 2C (Rattus norvegicus, UniProt P08909).
T2 sequence (P08909 whole entry): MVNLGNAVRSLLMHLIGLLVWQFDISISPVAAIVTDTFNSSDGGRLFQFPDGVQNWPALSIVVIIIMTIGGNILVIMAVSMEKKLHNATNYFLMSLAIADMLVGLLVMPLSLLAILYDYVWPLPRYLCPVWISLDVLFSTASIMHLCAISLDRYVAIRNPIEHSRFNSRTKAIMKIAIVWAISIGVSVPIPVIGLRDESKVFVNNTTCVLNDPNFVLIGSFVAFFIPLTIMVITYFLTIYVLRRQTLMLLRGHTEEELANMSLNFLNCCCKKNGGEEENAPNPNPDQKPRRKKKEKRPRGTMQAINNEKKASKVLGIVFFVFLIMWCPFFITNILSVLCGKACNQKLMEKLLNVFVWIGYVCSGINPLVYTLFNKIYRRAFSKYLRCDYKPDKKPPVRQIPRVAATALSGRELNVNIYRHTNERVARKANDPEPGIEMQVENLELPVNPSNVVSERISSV
The assay is described as follows: Displacement of [3H]mesulergine from rat 5HT2C receptor by liquid scintillation counting.

Another assay concerns the target T3, D(4) dopamine receptor (Rattus norvegicus, UniProt P30729).
T3 sequence (P30729 whole entry): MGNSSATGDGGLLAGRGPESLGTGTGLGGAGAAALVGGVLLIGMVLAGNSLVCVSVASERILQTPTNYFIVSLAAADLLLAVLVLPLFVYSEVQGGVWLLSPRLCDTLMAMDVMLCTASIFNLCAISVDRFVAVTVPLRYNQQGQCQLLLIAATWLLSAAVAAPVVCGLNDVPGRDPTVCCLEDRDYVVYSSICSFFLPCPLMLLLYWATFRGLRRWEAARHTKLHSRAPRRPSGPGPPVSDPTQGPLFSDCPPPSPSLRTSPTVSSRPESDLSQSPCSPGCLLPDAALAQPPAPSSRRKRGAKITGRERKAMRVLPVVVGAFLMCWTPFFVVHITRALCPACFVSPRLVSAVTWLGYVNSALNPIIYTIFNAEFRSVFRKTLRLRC
The assay is described as follows: Displacement of [3H]N-methylspiperone from rat dopamine D4 receptor by liquid scintillation counting.

A further assay deals with D(3) dopamine receptor (Homo sapiens, UniProt P35462). The assay is described as follows: Displacement of [3H]N-methylspiperone from human dopamine D3 receptor by liquid scintillation counting.
A further assay concerns the target Histamine H1 receptor (Homo sapiens, UniProt P35367).
The target in assay [4] is T4, Alpha-2C adrenergic receptor (Homo sapiens, UniProt P18825).
T4 sequence (P18825 whole entry): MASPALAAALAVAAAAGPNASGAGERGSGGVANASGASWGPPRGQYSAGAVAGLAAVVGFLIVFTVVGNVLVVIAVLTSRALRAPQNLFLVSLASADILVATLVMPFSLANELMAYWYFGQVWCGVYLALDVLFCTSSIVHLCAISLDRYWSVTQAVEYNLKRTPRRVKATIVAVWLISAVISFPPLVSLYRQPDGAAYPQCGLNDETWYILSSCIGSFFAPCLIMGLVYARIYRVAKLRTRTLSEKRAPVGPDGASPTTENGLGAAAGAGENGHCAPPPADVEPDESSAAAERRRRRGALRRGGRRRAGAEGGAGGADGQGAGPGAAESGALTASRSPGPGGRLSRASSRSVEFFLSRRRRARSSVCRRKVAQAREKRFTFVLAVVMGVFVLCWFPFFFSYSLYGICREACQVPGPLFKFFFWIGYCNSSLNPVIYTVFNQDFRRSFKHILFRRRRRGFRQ
Briefly: Displacement of [3H]clonidine from human Alpha-2C receptor by liquid scintillation counting.

Sequence of D(3) dopamine receptor (P35462 whole entry): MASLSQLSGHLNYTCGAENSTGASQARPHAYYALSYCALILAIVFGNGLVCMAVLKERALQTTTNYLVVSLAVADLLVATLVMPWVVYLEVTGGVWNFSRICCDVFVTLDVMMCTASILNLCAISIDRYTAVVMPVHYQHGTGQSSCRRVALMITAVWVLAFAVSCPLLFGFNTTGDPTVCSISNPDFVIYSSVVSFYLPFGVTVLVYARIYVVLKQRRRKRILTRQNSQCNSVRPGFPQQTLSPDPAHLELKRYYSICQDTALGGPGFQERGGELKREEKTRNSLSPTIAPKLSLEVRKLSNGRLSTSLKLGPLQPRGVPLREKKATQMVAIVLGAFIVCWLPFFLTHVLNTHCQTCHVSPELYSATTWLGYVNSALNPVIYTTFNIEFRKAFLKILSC
Sequence of 5-hydroxytryptamine receptor 2A (P28223 whole entry): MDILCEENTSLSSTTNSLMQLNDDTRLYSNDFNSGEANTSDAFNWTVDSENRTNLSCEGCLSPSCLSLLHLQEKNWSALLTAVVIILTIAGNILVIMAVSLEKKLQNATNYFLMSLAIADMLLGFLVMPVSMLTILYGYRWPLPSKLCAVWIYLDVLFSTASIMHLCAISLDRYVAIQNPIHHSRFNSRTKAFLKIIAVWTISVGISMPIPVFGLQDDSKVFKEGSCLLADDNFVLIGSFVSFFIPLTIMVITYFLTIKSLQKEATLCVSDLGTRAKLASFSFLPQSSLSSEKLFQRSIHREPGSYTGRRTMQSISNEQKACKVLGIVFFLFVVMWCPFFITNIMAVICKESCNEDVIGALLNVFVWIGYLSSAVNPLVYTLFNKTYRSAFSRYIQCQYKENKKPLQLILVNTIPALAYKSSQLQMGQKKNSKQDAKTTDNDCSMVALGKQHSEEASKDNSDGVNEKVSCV
Sequence of Histamine H1 receptor (P35367 whole entry): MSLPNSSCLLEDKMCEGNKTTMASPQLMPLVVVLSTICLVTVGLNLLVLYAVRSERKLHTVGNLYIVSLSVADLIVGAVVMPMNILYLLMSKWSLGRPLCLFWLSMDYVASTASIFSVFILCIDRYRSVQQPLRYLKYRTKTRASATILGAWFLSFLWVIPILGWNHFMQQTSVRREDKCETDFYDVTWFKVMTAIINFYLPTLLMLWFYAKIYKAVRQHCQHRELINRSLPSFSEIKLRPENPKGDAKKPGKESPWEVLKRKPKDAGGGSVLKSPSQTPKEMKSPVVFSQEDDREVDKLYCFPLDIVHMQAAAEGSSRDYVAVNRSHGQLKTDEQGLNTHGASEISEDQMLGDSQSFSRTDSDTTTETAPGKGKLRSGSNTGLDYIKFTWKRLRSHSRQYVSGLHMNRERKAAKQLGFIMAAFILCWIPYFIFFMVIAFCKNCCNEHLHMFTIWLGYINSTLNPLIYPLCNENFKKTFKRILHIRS
Sequence of D(2) dopamine receptor (P14416 whole entry): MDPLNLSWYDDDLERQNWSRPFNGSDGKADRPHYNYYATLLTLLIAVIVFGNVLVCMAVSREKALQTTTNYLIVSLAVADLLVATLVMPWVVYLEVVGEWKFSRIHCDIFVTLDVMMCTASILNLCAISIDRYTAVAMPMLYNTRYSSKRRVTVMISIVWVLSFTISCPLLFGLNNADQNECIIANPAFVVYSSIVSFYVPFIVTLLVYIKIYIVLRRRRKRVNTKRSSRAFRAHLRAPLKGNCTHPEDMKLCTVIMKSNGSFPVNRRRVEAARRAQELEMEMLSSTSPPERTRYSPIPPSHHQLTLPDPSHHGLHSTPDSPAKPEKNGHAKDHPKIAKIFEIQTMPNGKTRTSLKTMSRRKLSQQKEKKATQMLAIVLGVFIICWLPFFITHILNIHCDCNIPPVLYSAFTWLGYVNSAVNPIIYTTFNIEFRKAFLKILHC
Description for Histamine H1 receptor: Displacement of [3H]pyrilamine from human H1 receptor by liquid scintillation counting

For `Fc1ccc(OCCCN2CCC(c3ccc(Cl)cc3)CC2)cc1`, the Ki (usually the equilibrium dissociation constant of an inhibitor or competing ligand from its target) in assay [1] was 169 nM; on D(2) dopamine receptor it was 41 nM; in assay [2], 121 nM; in assay [3] it was above 10000 nM; on D(4) dopamine receptor it was 9.5 nM; on D(3) dopamine receptor, 696 nM.

For the molecule `Fc1ccc(OCCCN2CCN(c3ccccn3)CC2)cc1`, affinity on Histamine H1 receptor was put at a Ki of 262 nM. That is a sub-micromolar value.

In the case of `Fc1ccc(SCCCN2CCN(c3ncccn3)CC2)cc1`, the Ki in assay [1] came out at 93.1 nM; at D(2) dopamine receptor it was 424 nM; in assay [2], 27 nM; in assay [3], 8830 nM; at D(4) dopamine receptor, 21 nM; at D(3) dopamine receptor it was 68 nM.

In turn, `O=C(CCCN1CCN(c2ncccn2)CC1)c1ccc(F)cc1` returned an inhibitory constant (Ki) in assay [4] of 80 nM.

In the case of `Fc1ccc(OCCCN2CCN(c3ccc(Cl)cc3)CC2)cc1`, the Ki in assay [1] came out at 80 nM; on D(2) dopamine receptor, 390 nM; in assay [2], 60 nM; on D(4) dopamine receptor, 6.9 nM; on D(3) dopamine receptor it was 885 nM.

On to `Clc1ccc(N2CCN(CCCOc3ccccc3)CC2)cc1`, for which the Ki came to 154 nM in assay [1], 447 nM at D(2) dopamine receptor, 5.6 nM on D(4) dopamine receptor and 726 nM at D(3) dopamine receptor.

Turning to `OC1(c2ccc(Cl)cc2)CCN(CCCOc2ccc(F)cc2)CC1`, the figures for the Ki on D(2) dopamine receptor and at D(3) dopamine receptor were 5.3 nM and 182 nM, respectively.

Consider `Fc1ccc(SCCCN2CCN(c3ccccn3)CC2)cc1`, for which the Ki at Histamine H1 receptor was determined as 212 nM; in assay [4], 45.1 nM.

On to `[O-][S+](CCCN1CCC(c2ccc(Cl)cc2)CC1)c1ccc(F)cc1` (stereo not drawn), for which the Ki is 613 nM in assay [1]; 998 nM on D(2) dopamine receptor; 222 nM in assay [2]; above 10000 nM in assay [3]; 35 nM on D(4) dopamine receptor; 243 nM at D(3) dopamine receptor.

As to `Fc1ccc(SCCCN2CCN(c3ccc(Cl)cc3)CC2)cc1`, the Ki in assay [1] stood at 166 nM; on D(2) dopamine receptor, 211 nM; in assay [2], 53 nM; at D(4) dopamine receptor, 8.7 nM; at D(3) dopamine receptor, 422 nM.

Turning to `Fc1ccc(CCCCN2CCN(c3ccccn3)CC2)cc1`, the inhibition constant (Ki) at Histamine H1 receptor worked out at 167 nM; in assay [4] it was 308 nM.

In the case of `c1ccc(OCCCN2CCN(c3ccccc3)CC2)cc1`, the Ki worked out at 25 nM in assay [1]; 119 nM on D(2) dopamine receptor; 46 nM in assay [2]; 67.9 nM on Histamine H1 receptor; 4.5 nM at D(4) dopamine receptor; 79.3 nM on D(3) dopamine receptor.

For `Fc1ccc(SCCCN2CCC(c3ccc(Cl)cc3)CC2)cc1`, the inhibition constant Ki in assay [1] is 454 nM; at D(2) dopamine receptor, 185 nM; in assay [2], 112 nM; in assay [3] it was above 10000 nM; on D(4) dopamine receptor, 39 nM; on D(3) dopamine receptor, 130 nM.

`Fc1ccc(OCCCN2CCN(c3ccccc3)CC2)cc1`: the Ki in assay [1] came out at 24 nM; at D(2) dopamine receptor, 37 nM; in assay [2], 57.6 nM; on Histamine H1 receptor it was 62.9 nM; at D(4) dopamine receptor it was 7.4 nM; on D(3) dopamine receptor it was 207 nM.

As to `Fc1ccc(SCCCN2CCN(c3ccc(C(F)(F)F)cc3)CC2)cc1`, the Ki in assay [1] is 1080 nM; at D(2) dopamine receptor it was 4750 nM; in assay [2], 1130 nM; on D(4) dopamine receptor, 89 nM; on D(3) dopamine receptor, 544 nM.

On to `Fc1ccc(CCCCN2CCN(c3ccc(Cl)cc3)CC2)cc1`, for which the Ki was determined as 112 nM in assay [1], 81 nM in assay [2], 7.8 nM at D(4) dopamine receptor and 261 nM at D(3) dopamine receptor.

For `Fc1ccc(OCCCN2CCN(c3ncccn3)CC2)cc1`, the Ki in assay [1] is 23 nM; at D(2) dopamine receptor, 636 nM; in assay [2], 23 nM; in assay [3], above 10000 nM; at D(4) dopamine receptor, 4.2 nM; at D(3) dopamine receptor, 778 nM.
